For 15 compounds, IC50 results are on record in patent publication US20240409585A1, “MACROCYCLIC IMMUNOMODULATORS” (priority 2021, published 2024).

A word on the IC50: it is the concentration at which inhibition is half-maximal.

Molecules are shown by their SMILES. Bridge positions count the residues as written; N and C are the ends. Square brackets hold non-standard residues; d marks the D form. Peptide text beside a SMILES is read from it. * marks the point of attachment. ξ: configuration not given here. Phe(3-CF3) = N[C@@H](Cc1cccc(C(F)(F)F)c1)C(=O)O; Phe(2,4-Cl2) = N[C@@H](Cc1ccc(Cl)cc1Cl)C(=O)O; Phe(4-CH2NH2) = NCc1ccc(C[C@H](N)C(=O)O)cc1; Bip = N[C@@H](Cc1ccc(-c2ccccc2)cc1)C(=O)O; Phe(3-OMe) = COc1cccc(C[C@H](N)C(=O)O)c1; Phe(3-Me) = Cc1cccc(C[C@H](N)C(=O)O)c1; h4Pal = N[C@@H](CCc1ccncc1)C(=O)O; Ala(cPr) = N[C@@H](CC1CC1)C(=O)O; 4Pal = N[C@@H](Cc1ccncc1)C(=O)O; 2Thi = N[C@@H](Cc1cccs1)C(=O)O; Cha = N[C@@H](CC1CCCCC1)C(=O)O; Cit = NC(=O)NCCC[C@H](N)C(=O)O; Ile(3ξ) = CCC(C)[C@H](N)C(=O)O; Thr(3ξ) = CC(O)[C@H](N)C(=O)O; Carboxymethyl = O=C(O)C*; NMeA = CN[C@@H](C)C(=O)O; Dab = NCC[C@H](N)C(=O)O; Dap = NC[C@H](N)C(=O)O

The target in the experiment is T1, PE-labeled human PD-L1-Ig binding to Jurkat cell line over-expressing human PD-1 (Jurkat-PD-1) (Homo sapiens, UniProt Q15116).
T1 construct: expressed in transfected cells; host or cells: Jurkat
T1 sequence (Q15116 25-288): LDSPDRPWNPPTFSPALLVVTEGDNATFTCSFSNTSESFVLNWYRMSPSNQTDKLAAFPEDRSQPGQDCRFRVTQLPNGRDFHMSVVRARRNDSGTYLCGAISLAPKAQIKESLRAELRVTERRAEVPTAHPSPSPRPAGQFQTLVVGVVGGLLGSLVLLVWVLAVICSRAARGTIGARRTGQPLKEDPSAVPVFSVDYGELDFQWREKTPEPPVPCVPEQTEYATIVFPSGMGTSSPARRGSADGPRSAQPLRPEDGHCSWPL
Briefly: Jurkat-PD-1 Cell Binding High-Content Screening Assay (CBA): Method 1. As to conditions: Jurkat-hPD-1 cells, PE-labeled PD-L1-Ig 20 nM final; read-out: Jurkat HPDL1 PD1 IC50 (uM) (Method 1).
With `CCC(C)[C@@H]1NC(=O)[C@H](Cc2ccc(-c3ccccc3)cc2)NC(=O)[C@H](C(C)C)NC(=O)[C@H](Cc2c[nH]c3ccccc23)NC(=O)[C@H](CC(=O)O)NC(=O)[C@H](Cc2ccc(C(=O)O)cc2)NC(=O)[C@H](Cc2ccc(OCC(=O)O)cc2)NC(=O)CSC[C@@H](C(=O)N[C@@H](CCC(=O)O)C(=O)N[C@H](C(N)=O)C(=O)O)NC(=O)[C@H](CO)NC(=O)[C@H](C(C)C)NC(=O)[C@H](CC2CCCCC2)NC(=O)[C@H](CC(N)=O)NC(=O)[C@@H](CC(C)C)NC(=O)[C@H](C)N(C)C1=O` (stereo partly drawn) [Compound 2008], the IC50 amounted to 0.04 µM.
For the compound `Cc1cccc(C[C@@H]2NC(=O)[C@H](CC(=O)O)NC(=O)[C@H](Cc3ccncc3)NC(=O)[C@H](CN)NC(=O)CSC[C@@H](C(=O)N[C@@H](C)C(N)=O)NC(=O)[C@H]([C@@H](C)O)NC(=O)[C@H](C(C)C)NC(=O)[C@H](CC(C)C)NC(=O)[C@H](CCN)NC(=O)[C@@H](CC(C)C)NC(=O)[C@H](C)N(C)C(=O)[C@H](CCCNC(N)=O)NC(=O)[C@H](Cc3ccc(-c4ccccc4)cc3)NC(=O)[C@H](C(C)C)NC2=O)c1` [Compound 1546] ({CH2CO}-[Dap][4Pal]D[Phe(3-Me)]V[Bip][Cit][NMeA][dL][Dab]LVTCA-NH2; thioether N-14), the IC50 turned out to be 0.02 µM.
On to `CCC(C)[C@@H]1NC(=O)[C@H](Cc2ccc(-c3ccccc3)cc2)NC(=O)[C@H](C(C)C)NC(=O)[C@H](Cc2c[nH]c3ccccc23)NC(=O)[C@H](CC(=O)O)NC(=O)[C@H](Cc2ccc(O)cc2)NC(=O)[C@H](Cc2ccncc2)NC(=O)CSC[C@@H](C(=O)N[C@@H](CN)C(=O)O)NC(=O)[C@H](C(C)O)NC(=O)[C@H](C(C)C)NC(=O)[C@H](CC2CCCCC2)NC(=O)[C@H](CC(N)=O)NC(=O)[C@@H](CC(C)C)NC(=O)[C@H](C)N(C)C1=O` (stereo partly drawn) [Compound 2210] ({CH2CO}-[4Pal]YDWV[Bip][Ile(3ξ)][NMeA][dL]N[Cha]V[Thr(3ξ)]C[Dap]-OH; thioether N-14), for which the half-inhibitory concentration (IC50) came to 0.02 µM.
Take `CC(C)C[C@@H]1NC(=O)[C@H](Cc2c[nH]c3ccccc23)NC(=O)[C@H](CC(=O)O)NC(=O)[C@H](Cc2ccncc2)NC(=O)[C@H](CN)NC(=O)CSC[C@@H](C(=O)NCC(N)=O)NC(=O)[C@H](CO)NC(=O)[C@H](C(C)C)NC(=O)[C@H](CC(C)C)NC(=O)[C@H](CC(N)=O)NC(=O)[C@@H](CC(C)C)NC(=O)[C@H](C)N(C)C(=O)[C@H](C(C)C)NC(=O)[C@H](Cc2ccc(-c3ccccc3)cc2)NC1=O` [Compound 1549] ({CH2CO}-[Dap][4Pal]DWL[Bip]V[NMeA][dL]NLVSCG-NH2; thioether N-14): the IC50 was found to be 0.04 µM.
For `CC[C@H](C)[C@@H]1NC(=O)[C@H](Cc2ccc(-c3ccccc3)cc2)NC(=O)[C@H](C(C)C)NC(=O)[C@H](Cc2c[nH]c3ccccc23)NC(=O)[C@H](CC(=O)O)NC(=O)[C@H](Cc2ccc(O)cc2)NC(=O)[C@H](Cc2ccncc2)NC(=O)CSC[C@@H](C(N)=O)NC(=O)[C@H]([C@@H](C)O)NC(=O)[C@H](C(C)C)NC(=O)[C@H](CC(C)C)NC(=O)[C@H](CCN)NC(=O)[C@@H](CC(C)C)NC(=O)[C@H](C)N(C)C1=O` [Compound 1632] ({CH2CO}-[4Pal]YDWV[Bip]I[NMeA][dL][Dab]LVTC-NH2; thioether N-14), the IC50 was found to be 0.13 µM.
On to `CC(C)C[C@@H]1NC(=O)[C@H](Cc2c[nH]c3ccccc23)NC(=O)[C@H](CC(=O)O)NC(=O)[C@H](Cc2ccc(OCC(=O)O)cc2)NC(=O)[C@H](CCc2ccncc2)NC(=O)CSC[C@@H](C(=O)N[C@@H](CC(N)=O)C(N)=O)NC(=O)[C@H](Cc2cnc[nH]2)NC(=O)[C@H](C(C)C)NC(=O)[C@H](CC(C)C)NC(=O)[C@H](CCN)NC(=O)[C@@H](CC(C)C)NC(=O)[C@H](C)N(C)C(=O)[C@H](C(C)C)NC(=O)[C@H](Cc2ccc(-c3ccccc3)cc2)NC1=O` [Compound 2099] ({CH2CO}-[h4Pal]Y(Carboxymethyl)DWL[Bip]V[NMeA][dL][Dab]LVHCN-NH2; thioether N-14), for which the IC50 was found to be 0.02 µM.
On to `CC(C)C[C@@H]1NC(=O)[C@H](CCN)NC(=O)[C@@H](CC(C)C)NC(=O)[C@H](C)N(C)C(=O)[C@H](Cc2cnc[nH]2)NC(=O)[C@H](Cc2ccc(-c3ccccc3)cc2)NC(=O)[C@H](C(C)C)NC(=O)[C@H](Cc2c[nH]c3ccccc23)NC(=O)[C@H](CC(=O)O)NC(=O)[C@H](Cc2cccc(C(F)(F)F)c2)NC(=O)[C@H](CN)NC(=O)CSC[C@@H](C(=O)N[C@@H](C)C(N)=O)NC(=O)[C@H]([C@@H](C)O)NC(=O)[C@H](C(C)C)NC1=O` [Compound 1434] ({CH2CO}-[Dap][Phe(3-CF3)]DWV[Bip]H[NMeA][dL][Dab]LVTCA-NH2; thioether N-14), for which the IC50 came to 0.05 µM.
Take `CC(C)C[C@H]1NC(=O)[C@H](C)N(C)C(=O)[C@H](CCCNC(=N)N)NC(=O)[C@H](Cc2ccc(-c3ccccc3)cc2)NC(=O)[C@H](C(C)C)NC(=O)[C@H](Cc2c[nH]c3ccccc23)NC(=O)[C@H](CC(=O)O)NC(=O)[C@H](Cc2ccc(O)cc2)NC(=O)[C@H](Cc2ccccc2)NC(=O)CSC[C@@H](C(=O)N[C@@H](C)C(N)=O)NC(=O)[C@H]([C@@H](C)O)NC(=O)[C@H](C(C)C)NC(=O)[C@H](CC2CC2)NC(=O)[C@H](CCCNC(=N)N)NC1=O` [Compound 1111] ({CH2CO}-FYDWV[Bip]R[NMeA][dL]R[Ala(cPr)]VTCA-NH2; thioether N-14): the IC50 was 0.07 µM.
In the case of `COc1cccc(C[C@@H]2NC(=O)[C@H](CC(N)=O)NC(=O)CSC[C@@H](C(=O)N[C@@H](C)C(N)=O)NC(=O)[C@H]([C@@H](C)O)NC(=O)[C@H](C(C)C)NC(=O)[C@H](CC(C)C)NC(=O)[C@H](CCN)NC(=O)[C@@H](CC(C)C)NC(=O)[C@H](C)N(C)C(=O)[C@H](CCCNC(N)=O)NC(=O)[C@H](Cc3ccc(-c4ccccc4)cc3)NC(=O)[C@H](C(C)C)NC(=O)[C@H](Cc3c[nH]c4ccccc34)NC(=O)[C@H](CC(=O)O)NC2=O)c1` [Compound 1313] ({CH2CO}-N[Phe(3-OMe)]DWV[Bip][Cit][NMeA][dL][Dab]LVTCA-NH2; thioether N-14) it was 0.04 µM; in that of `CCC(C)[C@@H]1NC(=O)[C@H](Cc2ccc(-c3ccccc3)cc2)NC(=O)[C@H](C(C)C)NC(=O)[C@H](Cc2c[nH]c3ccccc23)NC(=O)[C@H](CC(=O)O)NC(=O)[C@H](Cc2ccc(O)cc2)NC(=O)[C@H](Cc2ccncc2)NC(=O)CSC[C@@H](C(=O)N[C@@H](C)C(N)=O)NC(=O)[C@H](C(C)O)NC(=O)[C@H](C(C)C)NC(=O)[C@H](CC2CCCCC2)NC(=O)[C@H](Cc2ccc(CN)cc2)NC(=O)[C@@H](CC(C)C)NC(=O)[C@H](C)N(C)C1=O` (stereo partly drawn) [Compound 2049] ({CH2CO}-[4Pal]YDWV[Bip][Ile(3ξ)][NMeA][dL][Phe(4-CH2NH2)][Cha]V[Thr(3ξ)]CA-NH2; thioether N-14), 0.09 µM.
As to `CC(C)C[C@@H]1NC(=O)[C@H](Cc2c[nH]c3ccccc23)NC(=O)[C@H](CC(=O)O)NC(=O)[C@H](Cc2ccc(Cl)cc2Cl)NC(=O)[C@H](Cc2ccccc2)NC(=O)CSC[C@@H](C(=O)N[C@@H](C)C(N)=O)NC(=O)[C@H](CO)NC(=O)[C@H](C(C)C)NC(=O)[C@H](CC(C)C)NC(=O)[C@H](CC(N)=O)NC(=O)[C@@H](C)NC(=O)[C@H](C)N(C)C(=O)[C@H](C(C)C)NC(=O)[C@H](Cc2ccc(-c3ccccc3)cc2)NC1=O` [Compound 1810] ({CH2CO}-F[Phe(2,4-Cl2)]DWL[Bip]V[NMeA][dA]NLVSCA-NH2; thioether N-14), the IC50 turned out to be 0.28 µM.
In the case of `CC(C)C[C@@H]1NC(=O)[C@H](CCN)NC(=O)[C@@H](CC(C)C)NC(=O)[C@H](C)N(C)C(=O)CNC(=O)[C@H](Cc2ccc(-c3ccccc3)cc2)NC(=O)[C@H](C(C)C)NC(=O)[C@H](Cc2c[nH]c3ccccc23)NC(=O)[C@H](CC(=O)O)NC(=O)[C@H](Cc2ccc(O)cc2)NC(=O)[C@H](CC(N)=O)NC(=O)CSC[C@@H](C(=O)N[C@@H](C)C(N)=O)NC(=O)[C@H]([C@@H](C)O)NC(=O)[C@H](C(C)C)NC1=O` [Compound 1281] ({CH2CO}-NYDWV[Bip]G[NMeA][dL][Dab]LVTCA-NH2; thioether N-14) it was 0.33 µM; in that of `CC(C)C[C@@H]1NC(=O)[C@H](CCN)NC(=O)[C@@H](CC(C)C)NC(=O)[C@H](C)N(C)C(=O)[C@H](CCCNC(=N)N)NC(=O)[C@H](Cc2ccc(-c3ccccc3)cc2)NC(=O)[C@H](C(C)C)NC(=O)[C@H](Cc2cccs2)NC(=O)[C@H](CC(=O)O)NC(=O)[C@H](Cc2ccc(O)cc2)NC(=O)[C@H](CC(N)=O)NC(=O)CSC[C@@H](C(=O)N[C@@H](C)C(N)=O)NC(=O)[C@H]([C@@H](C)O)NC(=O)[C@H](C(C)C)NC1=O` [Compound 1219] ({CH2CO}-NYD[2Thi]V[Bip]R[NMeA][dL][Dab]LVTCA-NH2; thioether N-14), 0.26 µM; in that of `CC(C)C[C@@H]1NC(=O)[C@H](Cc2c[nH]c3ccccc23)NC(=O)[C@H](CC(=O)O)NC(=O)[C@H](Cc2ccncc2)NC(=O)[C@H](Cc2ccc(OCC(=O)O)cc2)NC(=O)CSC[C@@H](C(=O)N[C@@H](CCN)C(N)=O)NC(=O)[C@H](CO)NC(=O)[C@H](C(C)C)NC(=O)[C@H](CC2CCCCC2)NC(=O)[C@H](CCN)NC(=O)[C@@H](CC(C)C)NC(=O)[C@H](C)N(C)C(=O)[C@H](C(C)C)NC(=O)[C@H](Cc2ccc(-c3ccccc3)cc2)NC1=O` [Compound 1905] ({CH2CO}-Y(Carboxymethyl)[4Pal]DWL[Bip]V[NMeA][dL][Dab][Cha]VSC[Dab]-NH2; thioether N-14), 0.01 µM.
The same measure for `CC(=O)NCCCC[C@@H]1NC(=O)[C@H](C(C)C)NC(=O)[C@H](CC2CCCCC2)NC(=O)[C@H](CCC(=O)O)NC(=O)[C@@H](CC(C)C)NC(=O)[C@H](C)N(C)C(=O)[C@H](Cc2cnc[nH]2)NC(=O)[C@H](Cc2ccc(-c3ccccc3)cc2)NC(=O)[C@H](CC(C)C)NC(=O)[C@H](Cc2cccc(C)c2)NC(=O)[C@H](CC(=O)O)NC(=O)[C@H](Cc2ccc(OCC(=O)O)cc2)NC(=O)[C@H](Cc2ccc(OCC(=O)O)cc2)NC(=O)CSC[C@@H](C(=O)N[C@H](C)C(N)=O)NC1=O` [Compound 2124] ({CH2CO}-Y(Carboxymethyl)Y(Carboxymethyl)D[Phe(3-Me)]L[Bip]H[NMeA][dL]E[Cha]VK(Ac)C[dA]-NH2; thioether N-14): 0.04 µM.
